Assay results from the NIST ThermoML archive (doi:10.1016/j.fluid.2011.01.012).
Numbers after ± are expanded uncertainties.

Assays:
[1] = Liquid; for mass density: 293.15 K, 101.33 kPa, Vibrating tube method; for Normal boiling temperature: Fischer Boiling Piont Apparatus
[2] = refractive index (Na D-line) (dimensionless); conditions: 293.15 K; 101.33 kPa; Liquid; Standard Abbe refractometry

## CCOC(=O)CCCC(=O)OCC [diethyl glutarate]
[1]
  mass density: 1022.04 ± 0.92 kg/m3
  Normal boiling temperature: 236.5 ± 1 °C
[2]
  refractive index: 1.42414 ± 0.00052

## CCOC(=O)CCC(=O)OCC [diethyl butanedioate]
[1]
  mass density: 1040.22 ± 0.36 kg/m3
  Normal boiling temperature: 217.7 ± 1 °C
[2]
  refractive index: 1.42014 ± 0.00039

## O [water]
[1]
  mass density: 999.9 ± 0.24 kg/m3
  Normal boiling temperature: 100.1 ± 1 °C
[2]
  refractive index: 1.3324 ± 0.00033

## CCOC(=O)CCCCC(=O)OCC [diethyl hexanedioate]
[1]
  mass density: 1007.63 ± 0.34 kg/m3
  Normal boiling temperature: 245.1 ± 1 °C
[2]
  refractive index: 1.42725 ± 0.00039
